What all share (assay): ≥ marks a high value that may be exact or a test limit, other limits are often not marked, values filed in µg/mL are converted to µM
In assay [1] the test system is Acinetobacter baumannii ATCC 19606.
Assay [2] deals with Bordetella bronchiseptica CUN 11844-99.
The test system of assay [3] is Brucella abortus 9.49 (per-).
Assay [4] deals with Escherichia coli ATCC 25922.
In assay [5] the test system is Pseudomonas aeruginosa CUN 4158-02.
The test system of assay [6] is Staphylococcus aureus ATCC 43300.
Assay [7] deals with Staphylococcus aureus ΔmprFpRBsyn.
Assay [8] concerns Staphylococcus aureus ΔmprF.
Assay [9] deals with Staphylococcus aureus.
The subject of assay [10] is Yersinia pestis KIM pYV.
Assay [11] relates to Acinetobacter baumannii KCTC 2508.
For assay [12], the system named is Acinetobacter baumannii.
Assay [13] deals with Bacillus subtilis ATCC 6633.
Assay [14] relates to Escherichia coli ATCC 33694.
Assay [15] has as its system Fusarium haematococcum 160.2.2.
Assay [16] concerns Neurospora crassa CBS 327-54.
The test system of assay [17] is Candida albicans ATCC 90112.
Assay [18] has as its system Micrococcus luteus ATCC 10240.
Assay [19] relates to Proteus mirabilis.
In assay [20] the test system is Pseudomonas aeruginosa ATCC 27853.
In assay [21] the test system is Staphylococcus aureus ATCC 25923.
For assay [22], the system named is Staphylococcus epidermidis.
The subject of assay [23] is Stenotrophomonas maltophilia ATCC 13637.
Assay [24] deals with Streptococcus pyogenes.
Assay [25] relates to Bacillus megaterium Bm11.
For assay [26], the system named is Escherichia coli D21.
The subject of assay [27] is Micrococcus luteus Ml11.
The test system of assay [28] is Proteus vulgaris OX19 ATCC 6380.
For assay [29], the system named is Pseudomonas aeruginosa OT97.
The test system of assay [30] is Shigella flexneri ATCC 203.
The test system of assay [31] is Staphylococcus aureus JC-1.
The test system of assay [32] is Agrobacterium tumefaciens ATCC 15955.
Assay [33] has as its system Escherichia coli 45849.
For assay [34], the system named is Escherichia coli BL21AI.
For assay [35], the system named is Escherichia coli D31.
Assay [36] relates to Escherichia coli DC2.
In assay [37] the test system is Escherichia coli DSM 1103.
The subject of assay [38] is Klebsiella pneumoniae 123132.
Assay [39] deals with Klebsiella pneumoniae DSM 681.
Assay [40] deals with Klebsiella pneumoniae K6 ATCC 700603.
Assay [41] concerns Salmonella enterica subsp. enterica serovar Typhi S5.
For assay [42], the system named is Salmonella enterica subsp. enterica serovar Typhimurium ATCC 700408.

Values after ≈ are worked out from the molar mass of the structure shown.

For `CC[C@H](C)[C@H](NC(=O)[C@H](CCCN=C(N)N)NC(=O)[C@H](CCCN=C(N)N)NC(=O)[C@H](CC(C)C)NC(=O)[C@H](Cc1ccccc1)NC(=O)[C@@H](NC(=O)[C@H](CCCN=C(N)N)NC(=O)[C@H](CCSC)NC(=O)[C@@H](NC(=O)[C@H](CCCCN)NC(=O)[C@H](CCCCN)NC(=O)[C@H](CO)NC(=O)[C@@H](NC(=O)[C@@H](N)CCCCN)[C@@H](C)CC)[C@@H](C)CC)[C@@H](C)O)C(=O)N[C@@H](CO)C(=O)N[C@@H](CCCCN)C(=O)N[C@@H](CC(=O)O)C(=O)N[C@H](C(=O)N[C@@H](CC(C)C)C(=O)N[C@H](C(=O)NCC(=O)N[C@@H](CCCCN)C(=O)N[C@@H](CCCCN)C(N)=O)[C@@H](C)O)[C@@H](C)CC` [KISKKIMRTFLRRISKDILTGKK], the minimum inhibitory concentration (MIC) – broadly, the lowest concentration found to suppress growth – in assay [1] is 1.45 µM (≈ 4 µg/mL); in assay [2] it was 0.362 µM (≈ 1 µg/mL); in [3], 0.724 µM (≈ 2 µg/mL); in assay [4], 1.45 µM (≈ 4 µg/mL); in [5] it was 1.45 µM (≈ 4 µg/mL); in assay [6] it was over 92.7 µM. The minimum inhibitory concentration (MIC) is 1.45 µM (≈ 4 µg/mL) in assay [7], 1.45 µM (≈ 4 µg/mL) in assay [8], 11.6 µM (≈ 32 µg/mL) in assay [9] and at least 46.4 µM in assay [10].

On to `CC[C@H](C)[C@H](NC(=O)CNC(=O)[C@@H](NC(=O)[C@H](CCCCN)NC(=O)[C@H](CCCCN)NC(=O)[C@H](Cc1ccccc1)NC(=O)[C@H](CC(C)C)NC(=O)[C@H](CCCCN)NC(=O)[C@H](Cc1c[nH]c2ccccc12)NC(=O)[C@@H](N)CCCCN)[C@@H](C)CC)C(=O)NCC(=O)N[C@@H](C)C(=O)N[C@H](C(=O)N[C@@H](CC(C)C)C(=O)N[C@@H](CCCCN)C(=O)N[C@H](C(=O)N[C@@H](CC(C)C)C(=O)N[C@H](C(=O)N[C@H](C(=O)NCC(N)=O)[C@@H](C)O)[C@@H](C)O)C(C)C)C(C)C` [KWKLFKKIGIGAVLKVLTTG], for which the minimum inhibitory concentration (MIC) in assay [11] worked out at 3.12 µM (≈ 6.86 µg/mL); in assay [12], 4.42 µM (≈ 9.71 µg/mL); in [13], 1.1 µM (≈ 2.43 µg/mL); in assay [14] it was 8.84 µM (≈ 19.4 µg/mL).

For the compound `CC[C@H](C)[C@H](NC(=O)[C@H](CCCN=C(N)N)NC(=O)[C@H](CCC(=O)O)NC(=O)[C@H](CC(=O)O)NC(=O)CNC(=O)[C@H](CCCN=C(N)N)NC(=O)[C@H](CC(C)C)NC(=O)[C@@H](N)[C@@H](C)O)C(=O)N[C@@H](CC(C)C)C(=O)N[C@@H](CO)C(=O)N[C@H](C(=O)N[C@@H](CC(C)C)C(=O)N[C@@H](CCCN=C(N)N)C(=O)N[C@@H](Cc1cnc[nH]1)C(=O)N[C@@H](CCC(N)=O)C(=O)N[C@@H](CC(N)=O)C(=O)N[C@@H](CC(C)C)C(=O)N[C@@H](CC(C)C)C(=O)N[C@@H](CCCCN)C(=O)N[C@@H](CCC(=O)O)C(=O)O)[C@@H](C)CC` [TLRGDERILSILRHQNLLKE], the MIC in assay [15] was 30 µM (≈ 72.1 µg/mL); in [16], at least 100 µM.

For `CC(C)C[C@H](NC(=O)CNC(=O)[C@H](CCCCN)NC(=O)[C@H](CC(C)C)NC(=O)[C@H](CC(N)=O)NC(=O)[C@@H](N)CC(C)C)C(=O)N[C@@H](Cc1ccccc1)C(=O)N[C@@H](CCCCN)C(=O)N[C@@H](CCCCN)C(=O)N[C@H](C(=O)N[C@@H](C)C(=O)N[C@@H](CO)C(=O)N[C@@H](CC(C)C)C(=O)N[C@@H](CC(C)C)C(=O)N[C@H](C(=O)O)[C@@H](C)O)C(C)C` [LNLKGLFKKVASLLT], the minimal inhibitory concentration (MIC) was 30 µM (≈ 49.4 µg/mL) in assay [13]; 7.5 µM (≈ 12.3 µg/mL) in assay [17]; 30 µM (≈ 49.4 µg/mL) in [4]; 30 µM (≈ 49.4 µg/mL) in assay [18]; at least 60 µM in assay [19]; 30 µM (≈ 49.4 µg/mL) in assay [20]. For the same compound, the MIC in assay [21] was over 60 µM; in assay [22], 30 µM (≈ 49.4 µg/mL); in assay [23] it was 15 µM (≈ 24.7 µg/mL); in [24], 30 µM (≈ 49.4 µg/mL).

`CC[C@H](C)[C@H](NC(=O)[C@@H]1CCCN1C(=O)[C@H](CCCN=C(N)N)NC(=O)[C@@H]1CCCN1C(=O)[C@H](CCCN=C(N)N)NC(=O)[C@H](Cc1ccc(O)cc1)NC(=O)[C@H](CC(N)=O)NC(=O)[C@@H]1CCCN1C(=O)[C@H](CCCN=C(N)N)NC(=O)[C@@H]1CCCN1C(=O)[C@@H](N)CCCN=C(N)N)C(=O)N[C@@H](Cc1ccc(O)cc1)C(=O)N[C@@H](CCCN=C(N)N)C(=O)N1CCC[C@H]1C(N)=O` [RPRPNYRPRPIYRP]: the MIC in [25] was found to be 1.03 µM (≈ 1.9 µg/mL); in [13] it was 1.06 µM (≈ 1.95 µg/mL); in assay [26], 2.12 µM (≈ 3.9 µg/mL); in assay [27], 5.44 µM (≈ 9.99 µg/mL); in [28], 4.24 µM (≈ 7.8 µg/mL); in assay [29], 4.24 µM (≈ 7.8 µg/mL). Moreover, the MIC in assay [30] amounted to 0.533 µM (≈ 0.98 µg/mL); in [31] it was 4.24 µM (≈ 7.8 µg/mL).

Regarding `CC[C@H](C)[C@H](NC(=O)[C@H](CCCN=C(N)N)NC(=O)[C@@H]1CCCN1C(=O)[C@H](Cc1cnc[nH]1)NC(=O)[C@@H]1CCCN1C(=O)[C@@H]1CCCN1C(=O)[C@H](CCCN=C(N)N)NC(=O)[C@@H]1CCCN1C(=O)[C@H](CCC(N)=O)NC(=O)[C@@H]1CCCN1C(=O)[C@H](CC(C)C)NC(=O)[C@H](Cc1ccc(O)cc1)NC(=O)[C@@H](NC(=O)[C@@H]1CCCN1C(=O)[C@H](CCCN=C(N)N)NC(=O)[C@H](CC(N)=O)NC(=O)[C@H](CC(N)=O)NC(=O)CN)C(C)C)C(N)=O` [GNNRPVYLPQPRPPHPRI], the MIC in assay [32] was 1.23 µM (≈ 2.6 µg/mL); in assay [33], 7.59 µM (≈ 16 µg/mL); in assay [34], 1.85 µM (≈ 3.91 µg/mL); in assay [35], at least 60.7 µM; in assay [36], 3.7 µM (≈ 7.81 µg/mL); in [37] it was 1.85 µM (≈ 3.91 µg/mL). The MIC in [38] is 15.2 µM (≈ 32 µg/mL); in [39], 7.41 µM (≈ 15.6 µg/mL); in [40] it was at least 60.7 µM; in [18], 0.925 µM (≈ 1.95 µg/mL); in assay [41] it was 15.2 µM (≈ 32 µg/mL); in assay [42], 1.9 µM (≈ 4 µg/mL).
